Results taken from patent publication US10543212B2, “Substituted amines for treating cardiac diseases” (Cardurion Pharmaceuticals, LLC, priority 2017, dated 2020).

Biological target: T1, Full-length, GST-tagged, human CaMKIIδ (Homo sapiens, UniProt Q13557)
T1 construct: Full-Length, Glutathione-S-Transferase(GST)-Tagged, Human CaMKIIδ was purchased from Carna Biosciences; purchased Carna Biosciences 02-111
Assay: CaMKIIδ binding assay (TR-FRET with BODIPY-labeled probe ligand)
Procedure, shortened: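 TR-FRET probe-displacement binding: 0.5 nM GST-CaMKIIδ with 10 μg/mL calmodulin, 1 mM CaCl2, 0.21 nM Tb-anti-GST Ab and 300 nM BODIPY probe in HEPES pH 7.6 buffer. Eight-point 4-fold dilutions, 1 hr at room temperature. IC50 from logistic fit; 100% inhibition defined by 3 μM parent compound.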

[1] = CaMKIIδ binding assay, results of Table 2
[2] = CaMKIIδ binding assay, activity class per Table 2
[3] = Table 2, activity class for CaMKIIδ

T1 sequence (Q13557 1-478 isoform Q13557-12): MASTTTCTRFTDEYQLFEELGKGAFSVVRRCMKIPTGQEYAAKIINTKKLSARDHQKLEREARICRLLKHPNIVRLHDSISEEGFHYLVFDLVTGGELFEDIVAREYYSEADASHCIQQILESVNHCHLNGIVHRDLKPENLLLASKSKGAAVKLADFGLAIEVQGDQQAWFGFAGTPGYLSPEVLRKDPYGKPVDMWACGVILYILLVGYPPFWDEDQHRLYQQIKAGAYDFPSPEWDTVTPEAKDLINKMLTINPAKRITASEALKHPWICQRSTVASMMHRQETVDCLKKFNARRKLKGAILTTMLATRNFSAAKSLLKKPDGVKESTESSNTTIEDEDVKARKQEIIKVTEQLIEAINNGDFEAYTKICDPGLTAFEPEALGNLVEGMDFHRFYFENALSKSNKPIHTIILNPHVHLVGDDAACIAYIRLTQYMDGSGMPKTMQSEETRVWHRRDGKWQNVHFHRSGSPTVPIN

Compound | IC50 [2] | IC50 [3] | further results
C[C@@H](Cn1cnnn1)Oc1cc(-c2cnc(Nc3cn(C4CCN(C5CCOC5)CC4)nc3C(F)(F)F)nc2)ccc1Cl (stereo partly drawn) [Example 552, 5-(3-(((S)-1-(1H-tetrazol-1-yl)propan-2-yl)oxy)-4-chlorophenyl)-N-(1-(1-(tetrahydrofuran-3-yl)piperidin-4-yl)-3-(trifluoromethyl)-1H-pyrazol-4-yl)pyrimidin-2-amine] | – | – | IC50 [1]: < 10 nM
C[C@@H](Cn1cnnn1)Oc1cc(-c2cnc(Nc3cn([C@H]4CC[C@H](N5CCOCC5)CC4)nc3OCC(F)F)nc2)ccc1F [Example 835, 5-(3-(((S)-1-(1H-tetrazol-1-yl)propan-2-yl)oxy)-4-fluorophenyl)-N-(3-(2,2-difluoroethoxy)-1-(trans-4-morpholinocyclohexyl)-1H-pyrazol-4-yl)pyrimidin-2-amine] | – | – | IC50 (Table 2, CaMKIIδ binding assay, activity given as class A/B/C): < 10 nM
C[C@@H](Cn1cnnn1)Oc1cc(-c2cnc(Nc3cn(C4(CO)CCC4)nc3OCC(F)(F)F)nc2)ccc1Cl [Example 914, (S)-(1-(4-((5-(3-((1-(1H-tetrazol-1-yl)propan-2-yl)oxy)-4-chlorophenyl)pyrimidin-2-yl)amino)-3-(2,2,2-trifluoroethoxy)-1H-pyrazol-1-yl)cyclobutyl)methanol] | < 10 nM | – | –
C[C@@H](Cn1cnnn1)Oc1cc(-c2cnc(Nc3cn(CC4CCCN4C4COC4)nc3C(F)(F)F)nc2)ccc1Cl (stereo partly drawn) [Example 609, 5-(3-(((S)-1-(1H-tetrazol-1-yl)propan-2-yl)oxy)-4-chlorophenyl)-N-(1-((1-(oxetan-3-yl)pyrrolidin-2-yl)methyl)-3-(trifluoromethyl)-1H-pyrazol-4-yl)pyrimidin-2-amine] | – | 10 to 100 nM | –
CCOC(=O)C1CCC(n2cc(Nc3ncc(-c4ccc(Cl)c(O[C@@H](C)Cn5cnnn5)c4)cn3)c(C(F)(F)F)n2)CC1 (stereo partly drawn) [Example 603, ethyl (S)-4-(4-((5-(3-((1-(1H-tetrazol-1-yl)propan-2-yl)oxy)-4-chlorophenyl)pyrimidin-2-yl)amino)-3-(trifluoromethyl)-1H-pyrazol-1-yl)cyclohexane-1-carboxylate] | – | 10 to 100 nM | –
C[C@@H](Cn1cnnn1)Oc1cc(-c2cnc(Nc3cn(C4CC5(C4)CN(c4ncccn4)C5)nc3OCC(F)(F)F)nc2)ccc1Cl [Example 952, (S)-5-(3-((1-(1H-tetrazol-1-yl)propan-2-yl)oxy)-4-chlorophenyl)-N-(1-(2-(pyrimidin-2-yl)-2-azaspiro[3.3]heptan-6-yl)-3-(2,2,2-trifluoroethoxy)-1H-pyrazol-4-yl)pyrimidin-2-amine] | < 10 nM | – | –
C[C@@H](Cn1cnnn1)Oc1cc(-c2cnc(Nc3cn(C4CC5(C4)CN(C4COCOC4)C5)nc3OCC(F)(F)F)nc2)ccc1Cl [Example 965, (S)—N-(1-(2-(1,3-dioxan-5-yl)-2-azaspiro[3.3]heptan-6-yl)-3-(2,2,2-trifluoroethoxy)-1H-pyrazol-4-yl)-5-(3-((1-(1H-tetrazol-1-yl)propan-2-yl)oxy)-4-chlorophenyl)pyrimidin-2-amine] | < 10 nM | – | –
C[C@@H](Cn1cnnn1)Oc1cc(-c2cnc(Nc3cc(N4CCC(N5CCOCC5)CC4)ccc3F)nc2)ccc1Cl [Example 580, (S)-5-(3-((1-(1H-tetrazol-1-yl)propan-2-yl)oxy)-4-chlorophenyl)-N-(2-fluoro-5-(4-morpholinopiperidin-1-yl)phenyl)pyrimidin-2-amine] | – | – | IC50 [1]: < 10 nM
COc1ccc(C(=O)N2CCCNCC2)cc1Nc1ncc(-c2ccc(Cl)c(O[C@@H](C)Cn3cnnn3)c2)cn1 [Example 593, (S)-(3-((5-(3-((1-(1H-tetrazol-1-yl)propan-2-yl)oxy)-4-chlorophenyl)pyrimidin-2-yl)amino)-4-methoxyphenyl) (1,4-diazepan-1-yl)methanone] | – | < 10 nM | –
COc1ccc(N2CCN(C(=O)CN(C)C)CC2)cc1Nc1ncc(-c2ccc(Cl)c(O[C@@H](C)Cn3cnnn3)c2)cn1 [Example 583, (S)-1-(4-(3-((5-(3-((1-(1H-tetrazol-1-yl)propan-2-yl)oxy)-4-chlorophenyl)pyrimidin-2-yl)amino)-4-methoxyphenyl)piperazin-1-yl)-2-(dimethylamino)ethan-1-one] | – | < 10 nM | –
